Data reported in patent US20030045563A1, “Pharmaceutical composition having reduced tendency for drug crystallization” (priority 2001, published 2003).
Each block holds one compound with its values, some of them ahead of it.

Assay: Test I: turbidity (apparent absorbance at 650 nm) of drug solutions with or without test polymer
Details: pH 7 phosphate buffer
[1] = drug 31.3 μg/ml, Dextran 65,000 0.5% w/w
[2] = drug 31.3 μg/ml, Ethylcellulose A15 0.5% w/w
[3] = drug 31.3 μg/ml, Glycerin (non-polymer) 0.5% w/w
[4] = drug 31.3 μg/ml, HPC 80,000 0.5% w/w
[5] = drug 31.3 μg/ml, HPMC E15 0.5% w/w
[6] = drug 31.3 μg/ml, Na CMC 250,000 0.5% w/w
[7] = drug 31.3 μg/ml, PEG 8,000 0.5% w/w
[8] = drug 31.3 μg/ml, PEG 20,000 0.5% w/w
[9] = drug 31.3 μg/ml, PVP 10,000 0.5% w/w
[10] = drug 31.3 μg/ml, PVP 29,000 0.5% w/w
[11] = drug 31.3 μg/ml, PVP 55,000 0.5% w/w
[12] = drug 62.5 μg/ml, Dextran 65,000 0.5% w/w
[13] = drug 62.5 μg/ml, Ethylcellulose A15 0.5% w/w
[14] = drug 62.5 μg/ml, Glycerin (non-polymer) 0.5% w/w
[15] = drug 62.5 μg/ml, HPC 80,000 0.5% w/w
[16] = drug 62.5 μg/ml, HPMC E15 0.5% w/w
[17] = drug 62.5 μg/ml, Na CMC 250,000 0.5% w/w
[18] = drug 62.5 μg/ml, PEG 8,000 0.5% w/w
[19] = drug 62.5 μg/ml, PEG 20,000 0.5% w/w
[20] = drug 62.5 μg/ml, PVP 10,000 0.5% w/w
[21] = drug 62.5 μg/ml, PVP 29,000 0.5% w/w
[22] = drug 62.5 μg/ml, PVP 55,000 0.5% w/w
[23] = drug 125 μg/ml, Dextran 65,000 0.5% w/w
[24] = drug 125 μg/ml, Ethylcellulose A15 0.5% w/w
[25] = drug 125 μg/ml, Glycerin (non-polymer) 0.5% w/w
[26] = drug 125 μg/ml, HPC 80,000 0.5% w/w
[27] = drug 125 μg/ml, HPMC E15 0.5% w/w
[28] = drug 125 μg/ml, Na CMC 250,000 0.5% w/w
[29] = drug 125 μg/ml, PEG 8,000 0.5% w/w
[30] = drug 125 μg/ml, PEG 20,000 0.5% w/w
[31] = drug 125 μg/ml, PVP 10,000 0.5% w/w
[32] = drug 125 μg/ml, PVP 29,000 0.5% w/w
[33] = drug 125 μg/ml, PVP 55,000 0.5% w/w
[34] = drug 250 μg/ml, Dextran 65,000 0.5% w/w
[35] = drug 250 μg/ml, Ethylcellulose A15 0.5% w/w
[36] = drug 250 μg/ml, Glycerin (non-polymer) 0.5% w/w
[37] = drug 250 μg/ml, HPC 80,000 0.5% w/w
[38] = drug 250 μg/ml, HPMC E15 0.5% w/w
[39] = drug 250 μg/ml, Na CMC 250,000 0.5% w/w
[40] = drug 250 μg/ml, PEG 8,000 0.5% w/w
[41] = drug 250 μg/ml, PEG 20,000 0.5% w/w
[42] = drug 250 μg/ml, PVP 10,000 0.5% w/w
[43] = drug 250 μg/ml, PVP 29,000 0.5% w/w
[44] = drug 250 μg/ml, PVP 55,000 0.5% w/w

Absorbance [1]: 0.033
Absorbance [2]: 0.041
Absorbance [3]: 0.038
Absorbance [4]: 0.034
Absorbance [5]: 0.037
Absorbance [6]: 0.046
Absorbance [7]: 0.031
Absorbance [8]: 0.039
Absorbance [9]: 0.035
Absorbance [10]: 0.031
Absorbance [11]: 0.04
Absorbance (drug 31.3 μg/ml, polymer None): 0.036
Absorbance [12]: 0.076
Absorbance [13]: 0.039
Absorbance [14]: 0.07
Absorbance [15]: 0.038
Absorbance [16]: 0.039
Absorbance [17]: 0.078
Absorbance [18]: 0.169
Absorbance [19]: 0.16
Absorbance [20]: 0.041
Absorbance [21]: 0.037
Absorbance [22]: 0.049
Absorbance (drug 62.5 μg/ml, polymer None): 0.069
Absorbance [23]: 0.266
Absorbance [24]: 0.06
Absorbance (drug 125 μg/ml, Ethylcellulose A15 0.5% w/w, listed as celecoxib): reduced turbidity
Absorbance [25]: 0.184
Absorbance [26]: 0.05
Absorbance (drug 125 μg/ml, HPC 80,000 0.5% w/w, listed as celecoxib): reduced turbidity
Absorbance [27]: 0.049
Absorbance (drug 125 μg/ml, HPMC E15 0.5% w/w, listed as celecoxib): reduced turbidity
Absorbance [28]: 0.083
Absorbance (drug 125 μg/ml, Na CMC 250,000 0.5% w/w, listed as celecoxib): reduced turbidity
Absorbance [29]: 0.308
Absorbance [30]: 0.342
Absorbance [31]: 0.072
Absorbance (drug 125 μg/ml, PVP 10,000 0.5% w/w, listed as celecoxib): reduced turbidity
Absorbance [32]: 0.064
Absorbance (drug 125 μg/ml, PVP 29,000 0.5% w/w, listed as celecoxib): reduced turbidity
Absorbance [33]: 0.048
Absorbance (drug 125 μg/ml, PVP 55,000 0.5% w/w, listed as celecoxib): reduced turbidity
Absorbance (drug 125 μg/ml, polymer None): 0.146
Absorbance [34]: 0.379
Absorbance [35]: 0.085
Absorbance (drug 250 μg/ml, Ethylcellulose A15 0.5% w/w, listed as celecoxib): reduced turbidity
Absorbance [36]: 0.41
Absorbance [37]: 0.11
Absorbance (drug 250 μg/ml, HPC 80,000 0.5% w/w, listed as celecoxib): reduced turbidity
Absorbance [38]: 0.093
Absorbance (drug 250 μg/ml, HPMC E15 0.5% w/w, listed as celecoxib): reduced turbidity
Absorbance [39]: 0.148
Absorbance (drug 250 μg/ml, Na CMC 250,000 0.5% w/w, listed as celecoxib): reduced turbidity
Absorbance [40]: 0.485
Absorbance [41]: 0.654
Absorbance [42]: 0.2
Absorbance (drug 250 μg/ml, PVP 10,000 0.5% w/w, listed as celecoxib): reduced turbidity
Absorbance [43]: 0.118
Absorbance (drug 250 μg/ml, PVP 29,000 0.5% w/w, listed as celecoxib): reduced turbidity
Absorbance [44]: 0.105
Absorbance (drug 250 μg/ml, PVP 55,000 0.5% w/w, listed as celecoxib): reduced turbidity
Absorbance (drug 250 μg/ml, polymer None): 0.376
Compound: Cc1ccc(-c2cc(C(F)(F)F)nn2-c2ccc(S(N)(=O)=O)cc2)cc1 [Celecoxib, 4-[5-(4-methylphenyl)-3-(trifluoromethyl)-1H-pyrazol-1-yl]benzenesulfonamide]

Absorbance [1]: 0.03
Absorbance [2]: 0.033
Absorbance [3]: 0.03
Absorbance [4]: 0.031
Absorbance [5]: 0.032
Absorbance [6]: 0.03
Absorbance [7]: 0.03
Absorbance [8]: 0.031
Absorbance [9]: 0.032
Absorbance [10]: 0.03
Absorbance [11]: 0.032
Absorbance (drug 31.3 μg/ml, polymer None): 0.031
Absorbance [12]: 0.031
Absorbance [13]: 0.033
Absorbance [14]: 0.028
Absorbance [15]: 0.032
Absorbance [16]: 0.034
Absorbance [17]: 0.036
Absorbance [18]: 0.03
Absorbance [19]: 0.031
Absorbance [20]: 0.034
Absorbance [21]: 0.03
Absorbance [22]: 0.031
Absorbance (drug 62.5 μg/ml, polymer None): 0.029
Absorbance [23]: 0.033
Absorbance [24]: 0.033
Absorbance [25]: 0.029
Absorbance [26]: 0.046
Absorbance [27]: 0.034
Absorbance [28]: 0.09
Absorbance [29]: 0.03
Absorbance [30]: 0.031
Absorbance [31]: 0.032
Absorbance [32]: 0.032
Absorbance [33]: 0.032
Absorbance (drug 125 μg/ml, polymer None): 0.029
Absorbance [34]: 0.289
Absorbance [35]: 0.052
Absorbance (drug 250 μg/ml, Ethylcellulose A15 0.5% w/w, listed as valdecoxib): reduced turbidity
Absorbance [36]: 0.229
Absorbance [37]: 0.093
Absorbance (drug 250 μg/ml, HPC 80,000 0.5% w/w, listed as valdecoxib): reduced turbidity
Absorbance [38]: 0.064
Absorbance (drug 250 μg/ml, HPMC E15 0.5% w/w, listed as valdecoxib): reduced turbidity
Absorbance [39]: 0.174
Absorbance (drug 250 μg/ml, Na CMC 250,000 0.5% w/w, listed as valdecoxib): reduced turbidity
Absorbance [40]: 0.345
Absorbance [41]: 0.433
Absorbance [42]: 0.321
Absorbance [43]: 0.183
Absorbance (drug 250 μg/ml, PVP 29,000 0.5% w/w, listed as valdecoxib): reduced turbidity
Absorbance [44]: 0.162
Absorbance (drug 250 μg/ml, PVP 55,000 0.5% w/w, listed as valdecoxib): reduced turbidity
Absorbance (drug 250 μg/ml, polymer None): 0.185
Compound: Cc1onc(-c2ccccc2)c1-c1ccc(S(N)(=O)=O)cc1 [Valdecoxib, 4-[5-methyl-3-phenylisoxazol-4-yl]benzenesulfonamide]
